The values that follow are results of earlier work, collected in patent US20040028740A1, “Steroid hormones as transfer agents” (priority 2000, published 2004).

[1] abbreviates: daily doses of 200 mg and 300 mg.

For `CC(=O)[C@H]1CC[C@H]2[C@@H]3CCC4=CC(=O)CC[C@]4(C)[C@H]3CC[C@]12C` [progesterone], under setting [1], the “effect on HDL-cholesterol levels” value is given as “does not affect”; the “effect on liver enzymes (ASAT, ALAT, AFOS)” value is “does not affect”; the “effect on sex-hormone binding-globulin (SHBG) synthesis” value is listed as “does not affect”. Further, where the note is “orally administered”, the “effect on carbohydrate metabolism” value was “adversely affects neither” and the “effect on plasma lipids” value is listed as “adversely affects neither”.
